Our source for the IC50 values is patent US20260308159A1, “BICYCLIC HETEROARYLAMIDES HAVING GPR68 MODULATING ACTIVITY” (RECURSION PHARMACEUTICALS, INC., priority 2023, published 2026).

Bounds are passed on as bounds.

For the assay, the target named is T1, human GPR68 (Homo sapiens, UniProt Q15743).
T1 construct: encoding full-length human GPR68 (uniprot ID: Q15743); expressed in transfected cells; host or cells: HEK293T
Nature of the assay: GPR68 Biochemical Assay (Promega GloSensor cAMP assay, GPR68 antagonism). Type of assay: cell-based. As to conditions: HEK293T cells transiently expressing hGPR68, antagonism of pH 5.5 stimulated cAMP, 15 min, read-out: hGPR68 IC50. As for the experimental part:
GPR68 antagonism was determined using the Promega GloSensor™ CAMP assay (F. I. Wang et al., Methods 2021, S1046-2023 (21) 00249-8). HEK293T cells (obtained from ECACC, Cat 12022001, Lot no. 17E044) were cultured in T175 flasks (Greiner, Cat 660175) in DMEM (Gibco, Cat 11995-065) supplemented with 10% Fetal Bovine Serum (Gibco Cat 16000-044), and 100 u/mL Pen-Strep (Gibco, Cat 15140) at 37° C. and 5% CO2. GPR68 expression was achieved by transient transfection with a mammalian expression plasmid encoding full-length human GPR68 (uniprot ID: Q15743) under control of a CMV promoter. The day before transfection, cell media was aspirated and HEK293T cells were incubated with accutase (Sigma, Cat A6964) for 3-4 minutes 37° C. and 5% CO2 before being manually detached with excess DMEM and trituration. Cell density was determined by automated cell counting (Countess, Invitrogen) and adjusted to 6×10^6 cells/20 mL and transferred to 15 cm dishes (Thermo Fisher, Cat 130183) for overnight incubation at 37° C. and 5% CO2. The next day separate mammalian expression plasmids encoding hGPR68 (4 μg) and Promega GloSensor (8 μg) were diluted to 1 mL in Opti-MEM (Thermo Fisher Scientific, Cat 31985070) and incubated with 30 μL of lipofectamine 3000 (also diluted to 1 mL in Opti-MEM) for 15 minutes at room temperature and subsequently added dropwise to the plated cells. Post transfection cells were then incubated at 37° C. and 5% CO2 for at least 16 hours before transfer to assay plates the following day. Transfer was conducted by washing cells with PBS and incubating with accutase for 3-4 minutes 37° C. and 5% CO2 before being manually detached with excess DMEM and mild trituration. The suspension was then centrifuged at 192 RCF for 4 minutes in a 50 mL centrifuge tube (Greiner, Cat 227261).
Supernatant was removed by aspiration and the cell pellet was resuspended in DMEM+1% dialysed FBS (Gibco, Cat 26400-044) and 100 u/mL Pen-Strep to a cell density of 500 cells/μL. Cells were plated into poly-L-Lysine coated 384-well white assay plates (Corning, Cat 3570) at a final volume of 40 µL and a density of 20,000 cells/well before overnight incubation at 37° C. and 5% CO2. The following day media was manually ejected from the 384-well assay plate and replaced with 10 μL GloSensor substrate (Promega, Cat E1291) prepared in pH 8.0 assay buffer (1×HBSS, 10 mM HEPES, 10 mM MOPS). Cells were incubated with this solution for 60 minutes at room temperature in the dark. Test compounds or an equivalent volume of DMSO (vehicle) were added to compounds plates to create a 9-point, half-log concentration series for each compound with a maximum final assay concentration of 50 μM and a consistent final DMSO concentration of 0.5%. Assay buffer with 0.1% BSA and 0.01% ascorbic acid was prepared at three pHs: pH 8.0, pH 5.5 and pH 4.5. pH 8.0 and 4.5 were added to the compound plate as maximum and minimum effect controls whilst pH 5.5 was added to all compound wells to stimulate GPR68 to a level corresponding to […] of maximal stimulation after addition to the cells already in pH 8.0 (assay acceptance criteria range 70-90%). DMSO/Compound and buffer was added to the plated cells containing the GloSensor substrate and incubated for 15 minutes at room temperature before being read on a microplate reader (BMG PHERAstar, optic module LUM Plus with Gain 3600). Data was exported and analysed in excel and Graphpad prism (version 9). Assay QC acceptance criteria required the maximum and minimum controls to return a Z′≥0.5, the EC80 to be 80%±10% of expected and the reference ligand pIC50 to be within one-half-log unit of its historical IC50. Percent inhibition was calculated using the mean EC80 (pH 5.5) and mean minimum effect control (pH 8.0). Data were plotted as percentage inhibition, average±SEM. IC50, Emax, Emin, Actual max, actual min, R^2 and fit confidence were calculated using Graphpad Prism's sigmoidal dose-response function.
A general note: cAMP levels reflect the balance of adenylyl cyclase and phosphodiesterase activity.

T1 sequence (Q15743 whole entry): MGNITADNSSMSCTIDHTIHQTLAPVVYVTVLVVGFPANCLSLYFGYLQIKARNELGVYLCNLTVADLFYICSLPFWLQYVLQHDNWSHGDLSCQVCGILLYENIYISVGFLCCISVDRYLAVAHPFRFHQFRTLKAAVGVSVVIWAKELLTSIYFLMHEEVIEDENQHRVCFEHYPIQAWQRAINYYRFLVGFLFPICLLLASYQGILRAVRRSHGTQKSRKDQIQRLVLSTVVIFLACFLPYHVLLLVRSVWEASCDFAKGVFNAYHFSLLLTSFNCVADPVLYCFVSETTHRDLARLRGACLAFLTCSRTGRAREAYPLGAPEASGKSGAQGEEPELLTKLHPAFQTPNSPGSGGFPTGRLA

As usually defined, the IC50 is the concentration that gives 50% inhibition. For the compound `COCc1nn2c(C(=O)NC3CCC(F)(F)CC3F)ccnc2c1C(N)=O` (mixture of isomers) [Compound 154, 2-(methoxymethyl)-N7-(2,4,4-trifluorocyclohexyl)pyrazolo[1,5-a]pyrimidine-3,7-dicarboxamide], the IC50 fell in the range of 0.05 to 0.5 µM.

As for `COCc1nn2c(C(=O)N[C@@H]3Cc4ccccc4[C@@H]3O)ccnc2c1C(N)=O` (relative stereo) [Compound 200, N7-(cis-1-hydroxyindan-2-yl)-2-(methoxymethyl)pyrazolo[1,5-a]pyrimidine-3,7-dicarboxamide], the IC50 was less than 0.05 µM.

For the compound `COCc1nn2c(C(=O)NC3Cc4cccnc4C3)ccnc2c1C(N)=O` (single isomer, unassigned) [Compound 146, N7-(6,7-dihydro-5H-cyclopenta[b]pyridin-6-yl)-2-(methoxymethyl)pyrazolo[1,5-a]pyrimidine-3,7-dicarboxamide], the IC50 is 0.05 to 0.5 µM.

For the compound `COCc1nn2c(C(=O)NC3Cc4cccnc4C3)ccnc2c1C(N)=O` (single isomer, unassigned) [Compound 147, N7-(6,7-dihydro-5H-cyclopenta[b]pyridin-6-yl)-2-(methoxymethyl)pyrazolo[1,5-a]pyrimidine-3,7-dicarboxamide], the IC50 is less than 0.05 µM.

As for `COCc1nn2c(C(=O)NC3CC(F)(F)c4ccccc43)ccnc2c1C(N)=O` (single isomer, unassigned) [Compound 173, N7-(3,3-difluoroindan-1-yl)-2-(methoxymethyl)pyrazolo[1,5-a]pyrimidine-3,7-dicarboxamide], the IC50 was less than 0.05 µM.

As to `COCc1nn2c(C(=O)NC3CC(F)(F)c4ccccc43)ccnc2c1C(N)=O` (single isomer, unassigned) [Compound 174, N7-(3,3-difluoroindan-1-yl)-2-(methoxymethyl)pyrazolo[1,5-a]pyrimidine-3,7-dicarboxamide], the IC50 is less than 0.05 µM.

In the case of `COCc1nn2c(C(=O)NC3CCC(F)(F)c4ccccc43)ccnc2c1C(N)=O` (single isomer, unassigned) [Compound 175, N7-[-4,4-difluorotetralin-1-yl]-2-(methoxymethyl)pyrazolo[1,5-a]pyrimidine-3,7-dicarboxamide], the IC50 was less than 0.05 µM.

As for `COCc1nn2c(C(=O)N[C@H]3CCS(=O)(=O)c4ccccc43)ccnc2c1C(N)=O` (single isomer, unassigned) [Compound 234], the IC50 was less than 0.05 µM.

With `NC(=O)c1cnn2c(C(=O)NC3Cc4ccccc4C3)ccnc12` [Compound 1, N7-indan-2-ylpyrazolo[1,5-a]pyrimidine-3,7-dicarboxamide], the IC50 is 0.05 to 0.5 µM.

In the case of `Cc1cccc2c1CC(NC(=O)c1ccnc3c(C(N)=O)cnn13)C2` (stereo not shown) [Compound 2, N7-(4-methylindan-2-yl)pyrazolo[1,5-a]pyrimidine-3,7-dicarboxamide], the IC50 lay within 0.05 to 0.5 µM.

For `COc1ccc2c(c1)CC(NC(=O)c1ccnc3c(C(N)=O)cnn13)C2` (stereo not shown) [Compound 3, N7-(5-methoxyindan-2-yl)pyrazolo[1,5-a]pyrimidine-3,7-dicarboxamide], the IC50 is 50 to 100 µM.

Take `NC(=O)c1cnn2c(C(=O)NC3Cc4cccc(Cl)c4C3)ccnc12` (stereo not shown) [Compound 4, N7-(4-chloroindan-2-yl)pyrazolo[1,5-a]pyrimidine-3,7-dicarboxamide]: the IC50 is 0.05 to 0.5 µM.

As for `NC(=O)c1cnn2c(C(=O)NC3CNc4ccccc4C3)ccnc12` (stereo not shown) [Compound 5, N7-(1,2,3,4-tetrahydroquinolin-3-yl)pyrazolo[1,5-a]pyrimidine-3,7-dicarboxamide], the IC50 was 0.5 to 5 µM.

As to `NC(=O)c1cnn2c(C(=O)NC3COc4ccccc4C3)ccnc12` (stereo not shown) [Compound 6, N7-chroman-3-ylpyrazolo[1,5-a]pyrimidine-3,7-dicarboxamide], the concentration for half-maximal inhibition (IC50) was 0.05 to 0.5 µM.

On to `C[C@]1(F)C[C@H](NC(=O)c2ccnc3c(C(N)=O)cnn23)C1` [Compound 7, N7-(trans-3-fluoro-3-methyl-cyclobutyl)pyrazolo[1,5-a]pyrimidine-3,7-dicarboxamide], for which the IC50 lay within 5 to 50 µM.

With `C[C@]1(O)C[C@@H](NC(=O)c2ccnc3c(C(N)=O)cnn23)C1` [Compound 8, N7-(cis-3-hydroxy-3-methyl-cyclobutyl)pyrazolo[1,5-a]pyrimidine-3,7-dicarboxamide], the IC50 was in the range of 5 to 50 µM.

As to `N#C[C@H]1C[C@@H](NC(=O)c2ccnc3c(C(N)=O)cnn23)C1` [Compound 9, N7-(cis-3-cyanocyclobutyl)pyrazolo[1,5-a]pyrimidine-3,7-dicarboxamide], the IC50 lay within 0.5 to 5 µM.

In the case of `CCC1(CC)CC(NC(=O)c2ccnc3c(C(N)=O)cnn23)C1` [Compound 10, N7-(3,3-diethylcyclobutyl)pyrazolo[1,5-a]pyrimidine-3,7-dicarboxamide], the IC50 was in the range of 50 to 100 µM.

Consider `CO[C@H]1C[C@@H](NC(=O)c2ccnc3c(C(N)=O)cnn23)C1` [Compound 11, N7-(cis-3-methoxycyclobutyl)pyrazolo[1,5-a]pyrimidine-3,7-dicarboxamide], for which the half-inhibitory concentration (IC50) fell in the range of 5 to 50 µM.

Regarding `NC(=O)c1cnn2c(C(=O)NC3CC4(CCOCC4)C3)ccnc12` [Compound 12, N7-(7-oxaspiro[3.5]nonan-2-yl)pyrazolo[1,5-a]pyrimidine-3,7-dicarboxamide], the IC50 was 50 to 100 µM.

On to `NC(=O)c1cnn2c(C(=O)NC3CCc4ccncc4C3)ccnc12` (stereo not shown) [Compound 13, N7-(5,6,7,8-tetrahydroisoquinolin-7-yl)pyrazolo[1,5-a]pyrimidine-3,7-dicarboxamide], for which the IC50 lay within 50 to 100 µM.

As for `NC(=O)c1cnn2c(C(=O)NC3Cc4cccc(CCC(F)(F)F)c4C3)ccnc12` (stereo not shown) [Compound 14, N7-[4-(3,3,3-trifluoropropyl)indan-2-yl]pyrazolo[1,5-a]pyrimidine-3,7-dicarboxamide], the half-inhibitory concentration (IC50) lay within 0.5 to 5 µM.

For `NC(=O)c1cnn2c(C(=O)NC3Cc4cccc(Oc5ccc(Cl)cc5)c4C3)ccnc12` (stereo not shown) [Compound 16, N7-[4-(4-chlorophenoxy)indan-2-yl]pyrazolo[1,5-a]pyrimidine-3,7-dicarboxamide], the IC50 lay in the range of 50 to 100 µM.

With `NC(=O)c1cnn2c(C(=O)NC3Cc4cccc(-c5ccccn5)c4C3)ccnc12` (stereo not shown) [Compound 17, N7-[4-(2-pyridyl)indan-2-yl]pyrazolo[1,5-a]pyrimidine-3,7-dicarboxamide], the IC50 was in the range of 50 to 100 µM.

With `NC(=O)c1cnn2c(C(=O)N[C@H]3C[C@@H](OC(F)(F)F)C3)ccnc12` [Compound 18, N7-[cis-3-(trifluoromethoxy)cyclobutyl]pyrazolo[1,5-a]pyrimidine-3,7-dicarboxamide], the IC50 lay in the range of 0.5 to 5 µM.

With `NC(=O)c1cnn2c(C(=O)NC3Cc4nccn4C3)ccnc12` (stereo not shown) [Compound 19, N7-(6,7-dihydro-5H-pyrrolo[1,2-a]imidazol-6-yl)pyrazolo[1,5-a]pyrimidine-3,7-dicarboxamide], the IC50 fell in the range of 5 to 50 µM.

As to `NC(=O)c1cnn2c(C(=O)NC3CNc4ncccc4C3)ccnc12` (stereo not shown) [Compound 20, N7-(1,2,3,4-tetrahydro-1,8-naphthyridin-3-yl)pyrazolo[1,5-a]pyrimidine-3,7-dicarboxamide], the IC50 fell in the range of 5 to 50 µM.

In the case of `N#Cc1nn2c(C(=O)NC3Cc4ccccc4C3)ccnc2c1C(N)=O` [Compound 21, 2-cyano-N7-indan-2-yl-pyrazolo[1,5-a]pyrimidine-3,7-dicarboxamide], the IC50 was 0.05 to 0.5 µM.
